The supplement of paper PMC10307832

Tests used:
Assay in all cases: relative viability (nuclei count vs DMSO), 5 days (fraction); higher = more cells survive
[1] = compound: C1=CC(=CC=C1NC(=S)NNC2=C(C=C(C=C2[N+](=O)[O-])C(F)(F)F)[N+](=O)[O-])F [Kobe2602] + CC(=O)c1c(C)c2cnc(Nc3ccc(N4CCNCC4)cn3)nc2n(C2CCCC2)c1=O [Palbociclib] (partner 0.5 µM)
Summary of the method: (§1)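 Relative viability is defined as nuclei in treated wells over nuclei in vehicle wells. Duplicate plates were run and medians reported. Lung cancer cell lines in 1536-well plates were dosed by pin tool one day after seeding, with one drug or with a fixed anchor-drug dose plus five library-drug doses (not always all listed) in √10 steps, and nuclei were counted after 5 days.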

[2] = compound: C1=CC(=CC=C1NC(=S)NNC2=C(C=C(C=C2[N+](=O)[O-])C(F)(F)F)[N+](=O)[O-])F [Kobe2602] + Cc1nc(Nc2ncc(C(=O)Nc3c(C)cccc3Cl)s2)cc(N2CCN(CCO)CC2)n1 [Dasatinib] (partner 0.075 µM)
Summary of the method: as §1

[3] = compound: COc1cc2nccc(Oc3ccc(NC(=O)C4(C(=O)Nc5ccc(F)cc5)CC4)cc3)c2cc1OC [Cabozantinib] + COc1cccc2cc(-c3nc([C@H]4CC[C@H](C(=O)O)CC4)n4ncnc(N)c34)[nH]c12 [OSI-027] (partner 0.5 µM)
Summary of the method: as §1

[4] = compound: COc1cc2nccc(Oc3ccc(NC(=O)C4(C(=O)Nc5ccc(F)cc5)CC4)cc3)c2cc1OC [Cabozantinib] + NC(=O)Nc1cc(-c2cccc(F)c2)sc1C(=O)N[C@H]1CCCNC1 [AZD7762] (partner 0.2 µM)
Summary of the method: as §1

Row | Cell Line | relative viability ([1]; first compound 0.2 µM) | relative viability ([1]; first compound 0.6325 µM) | relative viability ([1]; first compound 2 µM) | relative viability ([1]; first compound 6.325 µM) | relative viability ([1]; first compound 20 µM) | relative viability ([2]; first compound 0.2 µM) | relative viability ([2]; first compound 0.6325 µM) | relative viability ([2]; first compound 2 µM) | relative viability ([2]; first compound 6.325 µM) | relative viability ([2]; first compound 20 µM) | relative viability ([3]; first compound 0.06325 µM) | relative viability ([3]; first compound 0.2 µM) | relative viability ([3]; first compound 0.6325 µM) | relative viability ([3]; first compound 2 µM) | relative viability ([4]; first compound 0.02 µM) | relative viability ([4]; first compound 0.06325 µM) | relative viability ([4]; first compound 0.2 µM) | relative viability ([4]; first compound 0.6325 µM) | relative viability ([4]; first compound 2 µM) | relative viability ([3]; first compound 0.02 µM)
1 | NCI-H650 | 0.31 | 0.357 | 0.344 | 0.402 | 0.372 | 0.429 | 0.564 | 0.501 | 0.517 | 0.5 | 0.567 | 0.552 | 0.544 | 0.535 | 0.959 | 1.24 | 0.938 | 1.04 | 0.982 | 
2 | NCI-H727 | 0.665 | 0.703 | 0.635 |  | 0.704 | 0.376 | 0.384 | 0.342 | 0.484 | 0.392 | 0.73 | 0.58 | 0.617 | 0.445 | 0.509 | 0.796 | 0.661 | 0.539 | 0.651 | 0.491
3 | NCI-H838 | 0.196 | 0.215 | 0.199 | 0.246 | 0.199 | 0.264 | 0.309 | 0.249 | 0.291 | 0.289 | 0.38 | 0.339 | 0.414 | 0.366 | 1 | 0.74 | 0.908 | 0.93 | 0.866 | 0.458
4 | NCI-H1355 | 0.341 | 0.367 | 0.385 | 0.398 | 0.406 | 0.647 | 0.737 | 0.683 | 0.664 | 0.627 | 0.477 | 0.412 | 0.458 | 0.411 | 0.703 | 0.919 | 0.83 | 0.754 | 0.746 | 0.291
5 | NCI-H1395 | 0.636 | 0.69 | 0.638 | 0.589 | 0.647 | 0.468 | 0.456 | 0.452 | 0.442 | 0.442 | 0.675 | 0.632 | 0.69 | 0.573 | 0.367 | 0.445 | 0.436 | 0.42 | 0.401 | 0.514
6 | NCI-H1437 | 0.308 | 0.306 | 0.299 | 0.337 | 0.257 | 0.498 | 0.431 | 0.351 | 0.459 | 0.615 | 0.963 | 0.882 | 0.921 | 0.922 | 1.16 | 1.18 | 1.19 | 1.21 | 1.04 | 0.896
7 | NCI-H1651 | 0.528 | 0.52 | 0.521 | 0.524 | 0.518 | 0.596 | 0.362 | 0.429 | 0.402 | 0.37 | 0.69 | 0.612 | 0.796 | 0.581 | 0.391 | 0.544 | 0.444 | 0.438 | 0.39 | 0.725
8 | NCI-H1666 | 0.644 | 0.628 | 0.596 | 0.647 | 0.619 | 0.833 | 0.825 | 0.777 | 0.899 | 0.735 | 0.836 | 0.816 | 0.846 | 0.913 | 0.712 | 1.02 | 0.763 | 0.921 | 0.814 | 0.694
9 | NCI-H1734 | 0.364 | 0.412 | 0.325 | 0.607 | 0.334 | 0.425 | 0.543 | 0.432 | 0.478 | 0.468 | 0.611 | 0.59 | 0.586 | 0.573 | 0.522 | 0.655 | 0.563 | 0.575 | 0.544 | 0.433
10 | NCI-H1755 | 0.457 | 0.467 | 0.484 | 0.459 | 0.465 | 0.408 | 0.407 | 0.359 | 0.408 | 0.437 | 0.729 | 0.775 | 0.585 | 0.575 | 0.449 | 0.494 | 0.471 | 0.39 | 0.547 | 0.627
11 | NCI-H1792 | 0.634 | 0.707 | 0.653 | 0.671 | 0.682 | 0.691 | 0.949 | 0.894 | 0.85 | 0.787 | 0.75 | 0.697 | 0.664 | 0.531 |  | 1.05 | 0.684 | 0.506 | 0.335 | 
12 | NCI-H1793 | 0.326 | 0.318 | 0.304 | 0.31 | 0.293 | 0.367 | 0.4 | 0.361 | 0.397 | 0.398 | 0.254 | 0.198 | 0.253 | 0.197 | 0.413 | 0.625 |  | 0.579 | 0.17 | 0.196
13 | NCI-H1915 | 0.512 | 0.558 | 0.578 | 0.536 | 0.57 | 0.336 | 0.338 | 0.289 | 0.318 | 0.341 | 0.623 | 0.631 | 0.589 | 0.593 | 0.769 | 0.721 | 0.725 | 0.804 | 0.678 | 0.627
14 | NCI-H1944 | 0.351 | 0.343 | 0.311 | 0.333 | 0.371 | 0.255 | 0.223 | 0.233 | 0.213 | 0.245 | 0.425 | 0.389 | 0.444 | 0.402 | 0.492 | 0.552 | 0.598 | 0.55 | 0.69 | 0.282
15 | NCI-H1975 | 0.668 | 0.599 | 0.613 | 0.544 | 0.631 | 0.31 | 0.371 | 0.334 | 0.302 | 0.23 | 0.763 | 0.668 | 0.679 | 0.543 | 0.673 | 0.828 | 0.683 | 0.678 | 0.682 | 0.676
16 | NCI-H1993 | 0.679 | 0.543 | 0.48 | 0.589 | 0.525 | 0.575 | 0.501 | 0.544 | 0.532 | 0.607 | 0.528 | 0.569 | 0.519 | 0.543 | 0.589 | 0.556 | 0.513 | 0.461 | 0.56 | 0.511
17 | NCI-H2085 | 0.506 | 0.481 | 0.508 | 0.489 | 0.418 | 0.262 | 0.261 | 0.24 | 0.238 | 0.23 | 0.756 | 0.661 | 0.66 | 0.642 | 1.08 | 1.06 | 0.766 | 0.768 | 0.727 | 0.817
18 | NCI-H2087 | 0.202 | 0.258 | 0.21 | 0.297 | 0.237 | 0.932 | 0.892 | 0.747 | 0.844 | 0.924 | 0.549 | 0.637 | 0.562 | 0.633 | 1.19 | 1.44 | 1.18 | 1.35 | 1.35 | 0.364
19 | NCI-H2126 | 0.379 | 0.357 | 0.343 | 0.346 | 0.35 | 0.57 | 0.557 | 0.522 | 0.446 | 0.475 | 0.798 | 0.706 | 0.71 | 0.884 | 0.901 | 1.03 | 0.941 | 0.988 | 1.07 | 
20 | NCI-H2170 | 0.429 | 0.388 | 0.375 | 0.392 | 0.393 | 0.632 | 0.544 | 0.496 | 0.558 | 0.592 | 0.752 | 0.608 | 0.732 | 0.731 | 0.871 | 0.937 | 0.779 | 0.864 | 1.01 | 0.724
21 | NCI-H2342 | 0.537 | 0.563 | 0.467 | 0.532 | 0.535 | 0.285 | 0.323 | 0.367 | 0.303 | 0.333 | 0.723 | 0.563 | 0.621 | 0.613 | 0.401 | 0.69 | 0.624 | 0.535 | 0.415 | 0.543
22 | NCI-H2347 | 0.422 | 0.435 | 0.403 | 0.438 | 0.421 | 0.377 | 0.282 | 0.315 | 0.364 | 0.414 | 0.42 | 0.45 |  | 0.294 | 0.748 | 0.889 | 0.668 | 0.378 | 0.444 | 0.303
23 | NCI-H2405 | 0.52 | 0.572 | 0.537 | 0.553 | 0.528 | 0.24 | 0.211 | 0.215 | 0.228 | 0.228 | 0.699 | 0.735 | 0.651 | 0.682 | 0.687 | 0.918 | 0.769 | 0.68 | 0.655 | 0.338
24 | NCI-H3122 | 0.184 | 0.169 | 0.194 | 0.201 | 0.212 | 0.853 | 0.806 | 0.739 | 0.465 | 1 | 0.963 | 1.07 | 1.06 | 1.4 | 1.04 | 1.05 | 1.03 | 0.941 | 1.03 | 0.97
25 | PC-3 [JPC-3] | 0.587 | 0.524 | 0.561 | 0.482 | 0.501 | 1.01 | 0.949 | 0.996 | 0.944 | 0.99 | 0.934 |  | 0.925 | 0.768 | 0.633 | 0.888 |  | 0.859 | 0.798 | 0.652
26 | PC-14 | 0.502 | 0.51 | 0.539 | 0.455 | 0.32 | 0.253 | 0.253 | 0.259 | 0.211 | 0.139 | 0.973 | 0.0936 | 1.03 | 0.865 | 0.323 | 0.415 |  | 0.406 | 0.354 | 0.388
27 | RERF-LC-KJ | 0.994 | 1.02 | 0.992 | 0.939 | 0.728 | 0.769 | 0.714 | 0.652 | 0.556 | 0.405 | 0.623 | 0.547 | 0.602 | 0.645 | 0.811 | 1.06 | 0.963 | 0.946 | 1.01 | 0.498
28 | SW 900 | 0.621 | 0.53 | 0.559 | 0.567 | 0.551 | 0.463 | 0.836 | 0.586 | 0.537 | 0.898 | 0.695 | 0.637 | 0.554 | 0.376 | 0.604 | 0.761 | 0.559 | 0.441 | 0.448 | 0.637
